Test results: US20060106042A1, “Substituted heterocyclpyrmidines” (priority 2002, published 2006)
Like-named read-outs stand apart in the source and are kept apart here.

Assays:
[1] = tested on: caterpillars of the armyworm (Spodoptera frugiperda); assay: Spodoptera frugiperda test (cabbage leaves, dip); format: in vivo; conditions: 168 h, after 7 d, cabbage leaves dipped, read-out: Kill rate in % after 7 d
Experimental: Spodoptera frugiperda Test
(§1) • Solvent: 7 parts by weight of dimethylformamide • Emulsifier: 2 parts by weight of alkylaryl polyglycol ether
(§2) After the desired period of time, the kill in % is determined. 100% means that all caterpillars have been killed; 0% means that none of the caterpillars have been killed.

[2] = logP determination by reversed-phase HPLC (EEC Directive 79/831 Annex V.A8); format: physicochemical; conditions: for logP a): acidic range: 0.1% aqueous phosphoric acid/acetonitrile gradient, C18, 43° C.
Description: (a) Mobile phases for the determination of the acidic range: 0.1% aqueous phosphoric acid, acetonitrile; linear gradient from 10% acetonitrile to 90% acteonitrile—the corresponding measurement results in Table 1 are marked^a). […]

[3] = tested on: caterpillars of the diamondback moth (Plutella xylostella); assay: Plutella test (cabbage leaves, dip); format: in vivo; conditions: 500 ppm, cabbage leaves dipped
Experimental: as §1
To produce a suitable preparation of active compound, 1 part by weight of active compound is mixed with the stated amounts of solvent and emulsifier, and the concentrate is diluted with emulsifier-containing water to the desired concentration.
Cabbage leaves (Brassica oleracea) are treated by being dipped into the preparation of active compound of the desired concentration and are populated with caterpillars of the diamondback moth (Plutella xylostella) while the leaves are still moist.
as §2

[4] = tested on: greenhouse red spider mite (Tetranychus urticae); assay: Tetranychus test (OP-resistant/dip treatment); format: in vivo; conditions: 168 h, read-out: Kill rate in % after 7 d
Experimental: Tetranychus Test (OP-Resistant/Dip Treatment)
as §1
After the desired period of time, the effect in % is determined. 100% means that all spider mites have been killed; 0% means that none of the spider mites have been killed.

[5] = tested on: Meloidogyne incognita; assay: Meloidogyne test (gall formation on lettuce roots); format: in vivo; conditions: for pest or weed control at 20 ppm: Meloidogyne incognita, 336 h, after 14 d, nematicidal action by gall formation on lettuce, read-out: Kill rate in % after 14 d; for kill rate: 20 ppm, Meloidogyne test as described
Experimental: as §1
To produce a suitable preparation of active compound, 1 part by weight of active compound is mixed with the stated amounts of solvent and emulsifier, and the concentrate is diluted with water to the desired concentration.
Vessels are filled with sand, solution of active compound, Meloidogyne incognita egg/larvae suspension and lettuce seeds. The lettuce seeds germinate and the plants develop. On the roots, galls are formed.
After the desired period of time, the nematicidal action is determined in % using the formation of galls. 100% means that no galls were found; 0% means that the number of galls on the treated plants corresponds to that of the untreated control.

[6] = tested on: larvae of the mustard beetle (Phaedon cochleariae); assay: Phaedon larvae test (cabbage leaves, dip); format: in vivo; conditions: 168 h, after 7 d, cabbage leaves dipped, read-out: Kill rate in % after 7 d
Experimental: as §1
After the desired period of time, the kill in % is determined. 100% means that all beetle larvae have been killed; 0% means that none of the beetle larvae have been killed.

[7] = reversed-phase HPLC column (C18); acidic range: 0.1% aqueous phosphoric acid/acetonitrile gradient, C18, 43° C.; read-out: logP a)

| Compound | chromatographic logP [2, 7] | logP a) [2] | kill rate [5] | also measured |
| --- | --- | --- | --- | --- |
| FC(F)=CCCSc1nccc(-c2ccc(Br)s2)n1 [Example 51] | 4.77 | – | – | pest or weed control at 500 ppm [1]: 100% |
| Cc1ccc(-c2ccnc(SCCC=C(F)F)n2)s1 [Example 52] | 4.3 | – | – | pest or weed control at 500 ppm [1]: 100% |
| FC(F)=CCCSc1nccc(-c2cc3ccccc3s2)n1 [Example 53] | 4.87 | – | – | pest or weed control at 500 ppm [1]: 100% |
| Cc1c(-c2ccnc(SCCC=C(F)F)n2)sc2ccccc12 [Example 54] | 5.25 | – | – | Kill rate in % after 7 d [3]: 100%; pest or weed control at 500 ppm [1]: 100%; pest or weed control at 100 ppm ([4]; 100 ppm, after 7 d, OP-resistant, bean plants dipped): 100% |
| FC(F)=C(F)CCSc1nccc(-c2cc3ccccc3s2)n1 [Example 57] | 4.85 | – | – | pest or weed control at 20 ppm [5]: 100% |
| FC(F)=CCCSc1nccc(-c2ccsc2)n1 [Example 59] | 3.8 | – | – | pest or weed control at 500 ppm [6]: 100% |
| FC(F)=C(F)CCSc1nccc(-c2ccsc2)n1 [Example 60] | 3.82 | – | – | pest or weed control at 20 ppm [5]: 100% |
| Cc1cc(-c2ccnc(SCCC(F)=C(F)F)n2)c(C)s1 [Example 62] | 4.79 | – | – | pest or weed control at 20 ppm [5]: 100% |
| FC(F)=CCCSc1nccc(-c2cc(Cl)sc2Cl)n1 [Example 63] | 5.65 | – | – | pest or weed control at 500 ppm [1]: 100%; pest or weed control at 100 ppm [4]: 100% |
| FC(F)=C(F)CCSc1nccc(-c2cc(Cl)sc2Cl)n1 [Example 64] | 5.55 | – | – | pest or weed control at 20 ppm [5]: 100% |
| CC(C)(C)n1nnc(-c2cnc(SCCC(F)=C(F)F)nc2)n1 [Example 67] | 4.22 | – | – | pest or weed control at 20 ppm [5]: 100%; pest or weed control at 500 ppm [6]: 100% |
| Cc1nn(-c2ccnc(SCCC=C(F)F)n2)cc1Br [Example 82] | – | logP '2 4.76^a) | 100% | – |
| CC(C)Oc1cnn(-c2ccnc(SCCC=C(F)F)n2)c1 [Example 85] | – | logP = 4.26^a) | 100% | – |
| Cc1cc(C)n(-c2ccnc(SCCC=C(F)F)n2)n1 [Example 86] | – | logP = 3.95^a) | 100% | – |
| FC(F)=CCCSc1nccc(-n2ncc3ccccc32)n1 [Example 87] | – | logP = 4.26^a) | 100% | – |
| FC(F)=CCCSc1nccc(-n2cnc(Cl)c2Cl)n1 [Example 88] | – | logP = 3.57^a) | 100% | – |
| FC(F)=CCCSc1nccc(-n2cnc(-c3ccccc3)c2)n1 [Example 92] | – | logP = 3.45^a) | 100% | – |
| Nc1nn(-c2ccnc(SCCC=C(F)F)n2)cc1Br [Example 93] | – | logP = 3.15^a) | 100% | – |
| Nc1ccn(-c2ccnc(SCCC=C(F)F)n2)n1 [Example 97] | – | logP = 2.31^a) | 100% | – |
| N#Cc1cccn1-c1ccnc(SCCC=C(F)F)n1 [Example 104] | – | logP = 3.23^a) | 100% | – |
| Cc1nccn1-c1ccnc(SCCC=C(F)F)n1 [Example 107] | – | logP = 1.30^a) | 100% | – |
| FC(F)=CCCSc1nccc(-n2cnc(Cl)n2)n1 [Example 109] | – | logP = 3.31^a) | 100% | – |
| O=[N+]([O-])c1ncn(-c2ccnc(SCCC=C(F)F)n2)n1 [Example 110] | – | logP = 2.95^a) | 100% | – |
| FC(F)=CCCSc1nccc(-n2cncn2)n1 [Example 112] | – | logP = 2.44^a) | 100% | – |
| O=C1CCC(=O)N1c1ccnc(SCCC=C(F)F)n1 [Example 119] | – | – | 100% | – |
| FC(F)=CCCSc1nccc(-n2cccc2)n1 [Example 120] | – | – | 100% | – |
| FC(F)=CCCSc1nccc(-n2nccn2)n1 [Example 125] | – | – | 100% | – |
| FC(F)=CCCSc1nccc(Cl)n1 [Example (II-1), 4-chloro-2-[(4,4-difluoro-3-butenyl)-sulfanyl]-pyrimidine] | – | – | – | chromatographic logP ([2]; reversed-phase HPLC column (C18), pH 2.3, read-out: logP (pH 2.3)): 3.3 |
